Paper PMC6384738, “Structure-Function Studies of Polymyxin B Lipononapeptides” (Molecules, 2019)
≈ marks a conversion by molar mass, not a printed value. Where a SMILES comes first, the peptide text is derived from it. Bridges are numbered along the chain shown (N, C = ends). [ ]: non-standard residue; d: D form. The star is where a group is joined. Benzoyl(3-Ph) = O=C(c1cccc(-c2ccccc2)c1)*; Decanoyl(3R-OH) = CCCCCCC[C@@H](O)CC(=O)*; Butanoyl(4-OPh) = O=C(CCCOc1ccccc1)*; dDab = NCC[C@@H](N)C(=O)O; Octanoyl = CCCCCCCC(=O)*; Dab = NCC[C@H](N)C(=O)O; Dap = NC[C@H](N)C(=O)O

Columns and labels:
A. baumannii ATCC 19606 = assay: microbe, parasite or virus in culture; settings: for MIC A. baumannii ATCC 19606: ATCC 19606, 18 h
In short: (§1)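 Growth inhibition is assessed by broth microdilution, with the MIC expressed in mg/L; polymyxin B, colistin, vancomycin and gentamicin act as positive controls.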

E. coli ATCC 25922 = assay: microbe, parasite or virus in culture; settings: ATCC 25922, 18 h
In short: as §1

K. pneumoniae ATCC 13833 = assay: microbe, parasite or virus in culture; settings: for MIC K. pneumoniae ATCC 13833: ATCC 13833, 18 h
In short: as §1

[1] = system: K. pneumoniae ATCC 700603; assay: microbe, parasite or virus in culture; settings: for MIC K. pneumoniae ATCC 700603: ATCC 700603, 18 h
In short: as §1

K. pneumoniae BAA 2146 = assay: microbe, parasite or virus in culture; settings: for MIC K. pneumoniae BAA 2146: BAA 2146, 18 h
In short: as §1

P. aeruginosa ATTC 27853 = assay: microbe, parasite or virus in culture; settings: for MIC P. aeruginosa ATTC 27853: ATTC 27853, 18 h
In short: as §1

[2] = system: P. aeruginosa FADDI PA070; assay: microbe, parasite or virus in culture; settings: for MIC P. aeruginosa FADDI PA070: FADDI PA070, 18 h
In short: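 Compounds are diluted in broth, the strain is added, and the lowest concentration that inhibits growth is taken as the MIC (mg/L).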

S. aureus ATCC 25923 = assay: microbe, parasite or virus in culture; settings: for MIC S. aureus ATCC 25923: ATCC 25923, 18 h
In short: as §1

in vitro = settings: human
In short: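 HK-2 cells seeded 2000 cells/well in DMEM/F12 with 10% FBS, grown 24 h, then exposed to compounds (300 µM to 2.3 µM, 2-fold series; colistin/polymyxin B 1 mM to 7.8 µM) for 24 h at 37 °C. LDH in medium read at 450 nm after 30 min; cytotoxicity % relative to 1% Triton X-100 and untreated cells.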

SMILES | MIC A. baumannii ATCC 19606 (A. baumannii ATCC 19606) | MIC E. coli ATCC 25922 (E. coli ATCC 25922) | MIC K. pneumoniae ATCC 13833 (K. pneumoniae ATCC 13833) | MIC K. pneumoniae ATCC 700603 [1] | MIC K. pneumoniae BAA 2146 (K. pneumoniae BAA 2146) | MIC P. aeruginosa ATTC 27853 (P. aeruginosa ATTC 27853) | MIC P. aeruginosa FADDI PA070 [2] | MIC S. aureus ATCC 25923 (S. aureus ATCC 25923) | CC50 at 24 h (in vitro) | MIC (A. baumannii ATCC 19606; Acinetobacter baumannii, ATCC19606, 18 h, read-out: MIC A. baumannii ATCC 19606) | MIC (K. pneumoniae ATCC 13833; Klebsiella pneumoniae, ATCC13833, 18 h, read-out: MIC K. pneumoniae ATCC 13833) | MIC ([1]; Klebsiella pneumoniae, ATCC700603, 18 h, read-out: MIC K. pneumoniae ATCC 700603) | MIC (K. pneumoniae BAA 2146; Klebsiella pneumoniae, BAA2146, 18 h, read-out: MIC K. pneumoniae BAA 2146) | MIC (P. aeruginosa ATTC 27853; Pseudomonas aeruginosa, ATTC27853, 18 h, read-out: MIC P. aeruginosa ATTC 27853) | MIC ([2]; Pseudomonas aeruginosa, FADDIPA070, 18 h, read-out: MIC P. aeruginosa FADDI PA070) | MIC (S. aureus ATCC 25923; Staphylococcus aureus, ATCC25923, 18 h, read-out: MIC S. aureus ATCC 25923)
CC(C)C[C@@H]1NC(=O)[C@@H](Cc2ccccc2)NC(=O)[C@H](CCN)NC(=O)[C@@H](NC(=O)[C@@H](CCN)NC(=O)[C@@H](NC(=O)CCCOc2ccccc2)[C@@H](C)O)CCNC(=O)[C@H]([C@@H](C)O)NC(=O)[C@H](CCN)NC(=O)[C@H](CCN)NC1=O [Compound 26] ({Butanoyl(4-OPh)}-T[dDab][Dab][Dab][dF]L[Dab][Dab]T; lactam 3-C) | 16 µg/mL (≈ 14.2 µM) | 1 µg/mL (≈ 0.889 µM) | 4 µg/mL (≈ 3.55 µM) | 1 µg/mL (≈ 0.889 µM) | 1 µg/mL (≈ 0.889 µM) | 2 µg/mL (≈ 1.78 µM) | >32 µg/mL | >32 µg/mL | > 300 µM |  |  |  |  |  |  | 
CCCCCCCC(=O)N[C@H](C(=O)N[C@H](CCN)C(=O)N[C@H]1CCNC(=O)[C@H]([C@@H](C)O)NC(=O)[C@H](CCN)NC(=O)[C@H](CCN)NC(=O)[C@H](CC(C)C)NC(=O)[C@@H](Cc2ccccc2)NC(=O)[C@H](CCN)NC1=O)[C@@H](C)O [Compound 21] (Octanoyl-T[dDab][Dab][Dab][dF]L[Dab][Dab]T; lactam 3-C) | 8 µg/mL (≈ 7.34 µM) | 0.5 µg/mL (≈ 0.459 µM) | 4 µg/mL (≈ 3.67 µM) | 1 µg/mL (≈ 0.918 µM) | 1 µg/mL (≈ 0.918 µM) | 2 µg/mL (≈ 1.84 µM) | 8 µg/mL (≈ 7.34 µM) | >32 µg/mL | 289 µM |  |  |  |  |  |  | 
CCCCCCCC(=O)NCC(=O)N[C@H](CCN)C(=O)N[C@H]1CCNC(=O)[C@H]([C@@H](C)O)NC(=O)[C@H](CCN)NC(=O)[C@H](CCN)NC(=O)[C@H](CC(C)C)NC(=O)[C@@H](Cc2ccccc2)NC(=O)[C@H](CCN)NC1=O [Compound 33] (Octanoyl-G[dDab][Dab][Dab][dF]L[Dab][Dab]T; lactam 3-C) | >32 µg/mL | 16 µg/mL (≈ 15.3 µM) | >32 µg/mL | 32 µg/mL (≈ 30.6 µM) | >32 µg/mL | 1 µg/mL (≈ 0.957 µM) | >32 µg/mL | >32 µg/mL | 262 µM |  |  |  |  |  |  | 
CCCCCCCC(=O)N[C@@H](CO)C(=O)N[C@H](CCN)C(=O)N[C@H]1CCNC(=O)[C@H]([C@@H](C)O)NC(=O)[C@H](CCN)NC(=O)[C@H](CCN)NC(=O)[C@H](CC(C)C)NC(=O)[C@@H](Cc2ccccc2)NC(=O)[C@H](CCN)NC1=O [Compound 30] (Octanoyl-S[dDab][Dab][Dab][dF]L[Dab][Dab]T; lactam 3-C) | >32 µg/mL | 8 µg/mL (≈ 7.44 µM) | >32 µg/mL | 4 µg/mL (≈ 3.72 µM) | 8 µg/mL (≈ 7.44 µM) | 1 µg/mL (≈ 0.93 µM) | 16 µg/mL (≈ 14.9 µM) | >32 µg/mL | > 300 µM |  |  |  |  |  |  | 
CCCCCCCC(=O)N[C@@H](CCC(=O)O)C(=O)N[C@H](CCN)C(=O)N[C@H]1CCNC(=O)[C@H]([C@@H](C)O)NC(=O)[C@H](CCN)NC(=O)[C@H](CCN)NC(=O)[C@H](CC(C)C)NC(=O)[C@@H](Cc2ccccc2)NC(=O)[C@H](CCN)NC1=O [Compound 32] (Octanoyl-E[dDab][Dab][Dab][dF]L[Dab][Dab]T; lactam 3-C) | >32 µg/mL | >32 µg/mL | >32 µg/mL | 32 µg/mL (≈ 28.6 µM) | >32 µg/mL | 4 µg/mL (≈ 3.58 µM) | >32 µg/mL | >32 µg/mL | > 300 µM |  |  |  |  |  |  | 
CC(C)C[C@@H]1NC(=O)[C@@H](Cc2ccccc2)NC(=O)[C@H](CCN)NC(=O)[C@@H](NC(=O)[C@@H](CCN)NC(=O)[C@@H](NC(=O)c2cccc(-c3ccccc3)c2)[C@@H](C)O)CCNC(=O)[C@H]([C@@H](C)O)NC(=O)[C@H](CCN)NC(=O)[C@H](CCN)NC1=O [Compound 27] ({Benzoyl(3-Ph)}-T[dDab][Dab][Dab][dF]L[Dab][Dab]T; lactam 3-C) | >32 µg/mL | 4 µg/mL (≈ 3.5 µM) | 32 µg/mL (≈ 28 µM) | 16 µg/mL (≈ 14 µM) | 8 µg/mL (≈ 7 µM) | 2 µg/mL (≈ 1.75 µM) | 8 µg/mL (≈ 7 µM) | >32 µg/mL | > 300 µM |  |  |  |  |  |  | 
CCCCCCCC(=O)N[C@@H](Cc1ccc(O)cc1)C(=O)N[C@H](CCN)C(=O)N[C@H]1CCNC(=O)[C@H]([C@@H](C)O)NC(=O)[C@H](CCN)NC(=O)[C@H](CCN)NC(=O)[C@H](CC(C)C)NC(=O)[C@@H](Cc2ccccc2)NC(=O)[C@H](CCN)NC1=O [Compound 29] (Octanoyl-Y[dDab][Dab][Dab][dF]L[Dab][Dab]T; lactam 3-C) | >32 µg/mL | 16 µg/mL (≈ 13.9 µM) | >32 µg/mL | 16 µg/mL (≈ 13.9 µM) | >32 µg/mL | 4 µg/mL (≈ 3.47 µM) | 8 µg/mL (≈ 6.95 µM) | >32 µg/mL | > 300 µM |  |  |  |  |  |  | 
CCCCCCCC(=O)N[C@@H](CCN)C(=O)N[C@H](C(=O)N[C@H](CCN)C(=O)N[C@H]1CCNC(=O)[C@H]([C@@H](C)O)NC(=O)[C@H](CCN)NC(=O)[C@H](CCN)NC(=O)[C@H](CC(C)C)NC(=O)[C@@H](Cc2ccccc2)NC(=O)[C@H](CCN)NC1=O)[C@@H](C)O [Compound 20] (Octanoyl-[Dab]T[dDab][Dab][Dab][dF]L[Dab][Dab]T; lactam 4-C) |  |  | 0.5 µg/mL (≈ 0.42 µM) | 1 µg/mL (≈ 0.841 µM) | 4 µg/mL (≈ 3.36 µM) | 2 µg/mL (≈ 1.68 µM) | >32 µg/mL |  | 183 µM |  |  |  |  |  |  | 
CCCCCCCC(=O)N[C@@H](CC(N)=O)C(=O)N[C@H](CCN)C(=O)N[C@H]1CCNC(=O)[C@H]([C@@H](C)O)NC(=O)[C@H](CCN)NC(=O)[C@H](CCN)NC(=O)[C@H](CC(C)C)NC(=O)[C@@H](Cc2ccccc2)NC(=O)[C@H](CCN)NC1=O [Compound 28] (Octanoyl-N[dDab][Dab][Dab][dF]L[Dab][Dab]T; lactam 3-C) | >32 µg/mL | 32 µg/mL (≈ 29 µM) | >32 µg/mL | >32 µg/mL | >32 µg/mL | 4 µg/mL (≈ 3.63 µM) | 8 µg/mL (≈ 7.26 µM) | >32 µg/mL | > 300 µM |  |  |  |  |  |  | 
CNC(C)C1CCC(N)C(OC2C(N)CC(N)C(OC3OCC(C)(O)C(NC)C3O)C2O)O1 (stereo not drawn) [Gent, gentamicin, reference compound] |  |  |  |  |  |  |  |  | > 300 µM | 32 µg/mL (≈ 67 µM) | 0.25 µg/mL (≈ 0.523 µM) | 8 µg/mL (≈ 16.8 µM) | > 32 µg/mL | > 32 µg/mL | 32 µg/mL (≈ 67 µM) | 0.5 µg/mL (≈ 1.05 µM)
CCCCCCCC(=O)N[C@H](C(=O)N[C@@H](CN)C(=O)N[C@H]1CCNC(=O)[C@H]([C@@H](C)O)NC(=O)[C@H](CCN)NC(=O)[C@H](CCN)NC(=O)[C@H](CC(C)C)NC(=O)[C@@H](Cc2ccccc2)NC(=O)[C@H](CCN)NC1=O)[C@@H](C)O [Compound 39] (Octanoyl-T[Dap][Dab][Dab][dF]L[Dab][Dab]T; lactam 3-C) | 1 µg/mL (≈ 0.93 µM) | 1 µg/mL (≈ 0.93 µM) | 1 µg/mL (≈ 0.93 µM) | 1 µg/mL (≈ 0.93 µM) | 0.5 µg/mL (≈ 0.465 µM) | 1 µg/mL (≈ 0.93 µM) |  | >32 µg/mL | 290 µM |  |  |  |  |  |  | 
CCCCCCC[C@@H](O)CC(=O)N[C@H](C(=O)NCC(=O)N[C@H]1CCNC(=O)[C@H]([C@@H](C)O)NC(=O)[C@H](CCN)NC(=O)[C@H](CCN)NC(=O)[C@H](CC(C)C)NC(=O)[C@@H](Cc2ccccc2)NC(=O)[C@H](CCN)NC1=O)[C@@H](C)O [Compound 52] ({Decanoyl(3R-OH)}-TG[Dab][Dab][dF]L[Dab][Dab]T; lactam 3-C) | 32 µg/mL (≈ 29.3 µM) | 1 µg/mL (≈ 0.917 µM) | >32 µg/mL | 4 µg/mL (≈ 3.67 µM) | 4 µg/mL (≈ 3.67 µM) | 4 µg/mL (≈ 3.67 µM) |  | >32 µg/mL | > 300 µM |  |  |  |  |  |  | 
